From PubChem BioAssay (NCI)
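Cultured in 96-well plates, cells were exposed to test compound for 48 hours across five concentrations. The concentration for 50% growth inhibition is given as GI50. TGI is the concentration that stops growth completely.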 Where a SMILES comes first, the peptide text is derived from it. The star is where a group is joined. Boc = CC(C)(C)OC(=O)*

Key:
Experiment in all cases: NCI tumour cell line growth inhibition, 48 h
LOX IMVI melanoma = tested on: LOX IMVI melanoma
DU-145 prostate = tested on: DU-145 prostate
SF-295 CNS = tested on: SF-295 CNS
UO-31 renal = tested on: UO-31 renal
MALME-3M melanoma = tested on: MALME-3M melanoma
BT-549 breast = tested on: BT-549 breast
NCI-H23 lung = tested on: NCI-H23 lung
MOLT-4 leukemia = tested on: MOLT-4 leukemia
CAKI-1 renal = tested on: CAKI-1 renal
MDA-N = tested on: MDA-N

Compound	TGI (LOX IMVI melanoma)	TGI (DU-145 prostate)	TGI (SF-295 CNS)	TGI (UO-31 renal)	TGI (MALME-3M melanoma)	TGI (BT-549 breast)	TGI (NCI-H23 lung)	TGI (MOLT-4 leukemia)	TGI (CAKI-1 renal)	TGI (MDA-N)	GI50 (LOX IMVI melanoma)	GI50 (DU-145 prostate)	GI50 (SF-295 CNS)	GI50 (UO-31 renal)	GI50 (MALME-3M melanoma)	GI50 (BT-549 breast)	GI50 (NCI-H23 lung)	GI50 (MOLT-4 leukemia)	GI50 (CAKI-1 renal)
CC(C)(C)OC(=O)NCC(=O)NCC(=O)NCC(=O)NCC(=O)O (Boc-GGGG-OH)	> 100 µM	> 100 µM	> 100 µM	> 100 µM	> 100 µM	> 100 µM	> 100 µM	> 100 µM	> 100 µM										
CC(=O)O[C@]12CCCCCC1C1(O)C(O)CCC[C@H]12 (some centres undefined)	> 100 µM		> 100 µM	> 100 µM	> 100 µM		> 100 µM	> 100 µM											
C=CC[C@]12C[C@@H](C(=O)OC)N(C(=O)OC)[C@H]1N(S(=O)(=O)c1ccccc1)c1ccccc12		> 100 µM		> 100 µM	> 100 µM	> 100 µM	> 100 µM	> 100 µM	> 100 µM	> 100 µM									
O=C(NC(Cc1ccc(I)cc1)C(=O)O)c1ccc(I)cc1 (centres undefined)	> 100 µM		> 100 µM	> 36.6 µM	> 100 µM		> 100 µM	> 100 µM	> 100 µM										
CC1(C)N=C(C(N)=O)c2ncn(CCCO)c2N1	> 100 µM	> 100 µM	> 100 µM		> 100 µM		> 100 µM		> 100 µM	> 100 µM									
CCOC(=O)/C=C(\C)c1ccc(C)cc1C	31.3 µM		> 100 µM	> 100 µM	53.9 µM		> 100 µM	> 100 µM	> 100 µM										
O=c1c2ccccc2nc2[nH][nH]c(=S)n12	> 100 µM	> 100 µM	> 100 µM	> 100 µM		> 100 µM	> 100 µM	> 100 µM	> 100 µM	> 100 µM									
CCCCC1c2c([nH]c3ccccc23)C2C(=O)N(c3ccc(OC)cc3)C(=O)C2C1CCC (centres undefined)	> 10 µM	> 10 µM	> 10 µM	> 10 µM	9.42 µM		> 10 µM	7.97 µM	6.25 µM	7.45 µM									
Cc1cc(=O)c2c([nH]1)NS(=O)(=O)NC2=O			> 100 µM	> 100 µM	> 100 µM		> 100 µM	> 100 µM	> 100 µM										
Cc1csc(-c2cn(C)c3c2C(=O)C(N)=CC3=O)n1	> 100 µM	> 100 µM	20.8 µM	> 100 µM		> 100 µM	> 30 µM	> 27.9 µM	> 64.4 µM	45.2 µM									
O=C1C=CC(=O)N1Nc1ccc([N+](=O)[O-])cc1[N+](=O)[O-]	> 100 µM		> 100 µM	> 100 µM	31.1 µM		> 100 µM	> 75.2 µM	> 71 µM										
Cc1c2c(n(CCc3ccc(Cl)cc3)c1C)NN=C(C#N)S2(=O)=O	> 100 µM	> 100 µM		> 100 µM	> 100 µM		> 100 µM	> 100 µM		> 100 µM									
COc1ccc2cc(-c3ccc(-c4ccc(C(=N)N)s4)s3)ccc2c1	3.82 µM	3.32 µM	17.6 µM	9.72 µM	11.5 µM	38.5 µM	9.89 µM	6.7 µM	21.9 µM		1.95 µM	1.7 µM	5.07 µM	2.88 µM	3.32 µM	17.6 µM	3.22 µM	2.17 µM	8.29 µM
O=c1ccc2cc3ccc4cccc5ccc(c2o1)c3c45	55.6 µM		> 100 µM	44.9 µM	> 100 µM		> 100 µM	> 100 µM	> 100 µM										
CN(C)c1nc(=NCc2ccccc2)ss1	> 10 µM	> 10 µM	> 10 µM	> 10 µM	> 10 µM		> 10 µM	> 6.19 µM	> 10 µM	> 10 µM									
BrC/C=C/C[P+](c1ccccc1)(c1ccccc1)c1ccccc1	33.5 µM		60.6 µM	> 100 µM	> 100 µM		> 100 µM	> 100 µM											
CN(C)C(=S)S	> 100 µM	> 100 µM	> 100 µM	> 100 µM	> 90.2 µM	> 100 µM	> 93.3 µM	> 100 µM	> 100 µM										
C=C[C@@H]1C(CO)=CCC2[C@H]1CCC1C(C)(C)C(=O)CC[C@]21C (some centres undefined)	> 100 µM	> 100 µM	> 100 µM	> 100 µM	> 100 µM		> 100 µM	> 100 µM	> 100 µM	> 100 µM									
